Legend:
[1] = storage and handling stability of the solid form; assay type: physicochemical
[2] = crystalline free base; cited from earlier work

Row | Structure (SMILES) | stability on handling and storage (morphology and physicochemical characteristics) ([1]; solid crystalline form, stored for longer time) | time stable to handle and store without any significant or measurable change in morphology and physicochemical characteristics ([1]; solid crystalline material after drying, storage) | solubility [2]
1 | CS(=O)(=O)c1ccc(C(=O)Nc2ccc(Cl)c(-c3ccccn3)c2)c(Cl)c1 [Form-SV, 2-Chloro-N-(4-chloro-3-pyridin-2-ylphenyl)-4-methylsulfonylbenzamide] | quite stable | more than 6 months | 
2 | CS(=O)(=O)c1ccc(C(=O)Nc2ccc(Cl)c(-c3ccccn3)c2)c(Cl)c1 [Vismodegib] |  |  | pH dependent solubility
